# From patent US20130149269A1, “NOVEL MALODOR COUNTERACTANT” (priority 2011, published 2013)
# Assays:
# [1] = Bathroom malodor counteracting test, trained sensory panel (LMS rating); conditions: for Malodor Intensity / % MOR: bathroom malodor; for Malodor Intensity: mean LMS 0-100, 24 hours equilibration; for % MOR: relative to Malodor Alone
# Description: (§1) Establishment of Malodor Models: A number of malodorous chemicals have been identified, which are associated with different types of malodors. Commercial samples of these chemicals (commercially available at Sigma-Aldrich Inc.) were thus used in the present invention as malodorous model compounds to assess the effectiveness of methyl 3-methyl cyclohexane carboxylate in counteracting malodors.
# (§2) A model of bathroom malodor was established using a solution of isovaleric acid (“IVA”) in diethyl phthalate (“DEP”) (10% by weight). A model of sweat malodor was established using a solution of 3-methyl-2-hexanoic acid in DEP (5% by weight). A model of mold/mildew malodors was established using a solution of 2-ethyl-1-hexanol in DEP (20% by weight). A model of smoke malodor was established by applying a solution of 3-acetyl pyridine in DEP (5% by weight) onto a piece of cloth.
# (§3) Preparation of Test Samples: Methyl 3-methyl cyclohexane carboxylate was prepared at a series of concentrations, ranging from 0.1% to 5% in DEP, with corresponding vapor phase concentrations ranging from about 4 μg to about 0.2 mg per liter of air space.
# (§4) A malodor material as established above (1 g) and a solution of methyl 3-methyl cyclohexane carboxylate in DEP (1 g) were pipetted into separate aluminum weighing dishes located at the bottom of a 32 oz. jar (1 L). For negative control samples (Malodor Alone), the malodor material (0.5 g) was pipetted into each of the two dishes located at the bottom of jar. Jars were then capped and the samples were allowed to equilibrate for 24 hours before testing.
# (§5) Testing Procedure: Test samples were presented in a blind and pseudorandom order to a group of trained panelists (consisting of 12-17 females with a mean age of 40 years). The panelists were instructed to take the following steps: i) sniff malodor reference jars for familiarization prior to each testing session; ii) uncap a jar; iii) place their noses at a distance of about 3-4 inches above the opening; iv) take short sniffs for about 2-3 seconds; and v) enter a rating of overall intensity and malodor intensity on a handheld computer.
# (§6) The overall and malodor intensity was rated using the Labeled Magnitude Scale (LMS) [Green, et al., Chemical Senses, 21(3), June 1996, 323-334]. Mean (“Malodor Intensity”) and standard error of the mean (“SE”, ±) were obtained, where 0 represents “No Sensation” and 100 represents “The Strongest Imaginable Malodor Sensation”. Percent malodor reduction (“% MOR”) represents the perceived reduction in mean malodor intensity of the sample containing the malodor in the presence of methyl 3-methyl cyclohexane carboxylate relative to the negative control (Malodor Alone).
# [2] = Sweat malodor counteracting test, trained sensory panel (LMS rating); conditions: for Malodor Intensity / % MOR: sweat malodor; for Malodor Intensity: mean LMS 0-100, 24 hours equilibration; for % MOR: relative to Malodor Alone
# Description: as §1, §2, §3, §4, §5, §6
# [3] = Smoke malodor counteracting test, trained sensory panel (LMS rating); conditions: for Malodor Intensity / % MOR: smoke malodor; for Malodor Intensity: mean LMS 0-100, 24 hours equilibration; for % MOR: relative to Malodor Alone
# Description: as §1, §2, §3, §4, §5, §6
# [4] = Mold/mildew malodor counteracting test, trained sensory panel (LMS rating); conditions: for Malodor Intensity / % MOR: mold/mildew malodor; for Malodor Intensity: mean LMS 0-100, 24 hours equilibration; for % MOR: relative to Malodor Alone
# Description: as §1, §2, §3, §4, §5, §6
# [5] = overall conclusion, 0.1% to 5% in DEP
smiles,measurement,setting,value
"COC(=O)C1CCCC(C)C1 (stereo not drawn) [Methyl 3-Methyl Cyclohexane Carboxylate, methyl 3-methyl cyclohexane carboxylate]",Malodor Intensity,"[1]; 0.1% in DEP, 4 μg/L",8.65
same,% MOR,"[1]; 0.1% in DEP, 4 μg/L",56.93%
same,Malodor Intensity,"[1]; 0.5% in DEP, 21 μg/L",5.44
same,% MOR,"[1]; 0.5% in DEP, 21 μg/L",66.47%
same,Malodor Intensity,"[1]; 1% in DEP, 42 μg/L",2.69
same,% MOR,"[1]; 1% in DEP, 42 μg/L",86.11%
same,Malodor Intensity,"[1]; 5% in DEP, 208 μg/L",1.71
same,% MOR,"[1]; 5% in DEP, 208 μg/L",90.86%
same,counteracting the bathroom malodor (result in words),[1]; [5],effective
same,counteracting the sweat malodor (result in words),[2]; [5],effective
same,Malodor Intensity,"[2]; 0.1% in DEP, 4 μg/L",4.48
same,% MOR,"[2]; 0.1% in DEP, 4 μg/L",77.92%
same,Malodor Intensity,"[2]; 0.5% in DEP, 21 μg/L",5.12
same,% MOR,"[2]; 0.5% in DEP, 21 μg/L",72.63%
same,Malodor Intensity,"[2]; 1% in DEP, 42 μg/L",5.42
same,% MOR,"[2]; 1% in DEP, 42 μg/L",73.14%
same,Malodor Intensity,"[2]; 5% in DEP, 208 μg/L",3.55
same,% MOR,"[2]; 5% in DEP, 208 μg/L",81.47%
same,counteracting the smoke malodor (result in words),[3]; [5],effective
same,Malodor Intensity,"[3]; 0.1% in DEP, 4 μg/L",10.02
same,% MOR,"[3]; 0.1% in DEP, 4 μg/L",51.95%
same,Malodor Intensity,"[3]; 0.5% in DEP, 21 μg/L",7.23
same,% MOR,"[3]; 0.5% in DEP, 21 μg/L",66.04%
same,Malodor Intensity,"[3]; 1% in DEP, 42 μg/L",4.78
same,% MOR,"[3]; 1% in DEP, 42 μg/L",77.57%
same,Malodor Intensity,"[3]; 5% in DEP, 208 μg/L",4.23
same,% MOR,"[3]; 5% in DEP, 208 μg/L",80.07%
same,Malodor Intensity,"[4]; 0.1% in DEP, 4 μg/L",9.88
same,% MOR,"[4]; 0.1% in DEP, 4 μg/L",40.01%
same,Malodor Intensity,"[4]; 0.5% in DEP, 21 μg/L",5.44
same,% MOR,"[4]; 0.5% in DEP, 21 μg/L",69.56%
same,Malodor Intensity,"[4]; 1% in DEP, 42 μg/L",4.44
same,% MOR,"[4]; 1% in DEP, 42 μg/L",76.51%
same,Malodor Intensity,"[4]; 5% in DEP, 208 μg/L",3.34
same,% MOR,"[4]; 5% in DEP, 208 μg/L",83.07%
same,counteracting the mold/mildew malodor (result in words),[4]; [5],effective
